Reference: article PMC10882719 (Frontiers in Neuroscience, 2024)
Like-named read-outs stand apart in the source and are kept apart here.

Experiments:
Type in all cases: cell-based
168 GPCRs [1] = target: T1, 168 GPCRs (Homo sapiens, UniProt Q9H1C0)
T1 construct: host or cells: PathHunter cell lines
Experimental: (§1) Studies were performed at Eurofins DiscoverX Corporation (Fremont, CA) using the GPCRmax assay according to the manufacturer’s protocols. […] Activity greater than 30% typically indicates agonist activity and inhibition greater than 50% indicates antagonist activity. This assay uses enzyme fragment complementation with […] as the functional reporter. When a GPCR is activated, […] is recruited and the reporter is detectable. GPCRmax offers a high-throughput screen of 168 GPCRs for agonist or antagonist activity. Briefly, PathHunter cell lines were propagated, seeded into 384-well microplates and incubated at 37°C. […] Microplates were read following signal generation with a PerkinElmer Envision™ instrument for chemiluminescent signal detection. Compound activity was analyzed using CBIS data analysis suite (ChemInnovation, CA) to determine raw values (RLU). For agonist mode assay, percentage activity was calculated using the following formula: % Activity =100% × (mean RLU of test sample - mean RLU of vehicle control) / (mean MAX control ligand - mean RLU of vehicle control). For antagonist mode assay, percentage inhibition was calculated using the following formula: % Inhibition =100% × (1 - (mean RLU of test sample - mean RLU of vehicle control) / (mean RLU of EC80 control - mean RLU of vehicle control)).

168 GPCRs [2] = target: T2, 168 GPCRs (Homo sapiens, UniProt P34972)
T2 construct: host or cells: PathHunter cell lines
Experimental: as §1

168 GPCRs [3] = target: T3, 168 GPCRs (Homo sapiens, UniProt P21453)
T3 construct: host or cells: PathHunter cell lines
Experimental: as §1

168 GPCRs [4] = target: T4, 168 GPCRs (Homo sapiens, UniProt Q03431); conditions: PTHR1
T4 construct: host or cells: PathHunter cell lines
T4 sequence (Q03431 27-593): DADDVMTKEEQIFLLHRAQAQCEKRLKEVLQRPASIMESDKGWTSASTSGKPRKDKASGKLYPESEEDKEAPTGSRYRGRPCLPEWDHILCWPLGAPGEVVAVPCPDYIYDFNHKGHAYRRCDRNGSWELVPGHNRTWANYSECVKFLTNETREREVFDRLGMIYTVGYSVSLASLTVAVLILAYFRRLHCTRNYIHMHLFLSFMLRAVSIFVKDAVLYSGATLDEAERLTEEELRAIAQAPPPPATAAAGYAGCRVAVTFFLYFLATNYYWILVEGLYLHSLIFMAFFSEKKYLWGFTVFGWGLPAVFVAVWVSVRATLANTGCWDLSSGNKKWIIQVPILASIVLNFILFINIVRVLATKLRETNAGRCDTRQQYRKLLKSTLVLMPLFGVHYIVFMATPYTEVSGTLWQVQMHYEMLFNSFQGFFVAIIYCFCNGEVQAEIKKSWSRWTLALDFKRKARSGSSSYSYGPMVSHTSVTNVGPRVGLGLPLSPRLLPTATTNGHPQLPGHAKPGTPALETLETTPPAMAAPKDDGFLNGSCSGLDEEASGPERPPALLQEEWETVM
Experimental: as §1

168 GPCRs [5] = target: T5, 168 GPCRs (Homo sapiens, UniProt P49682)
T5 construct: host or cells: PathHunter cell lines
T5 sequence (P49682 1-368): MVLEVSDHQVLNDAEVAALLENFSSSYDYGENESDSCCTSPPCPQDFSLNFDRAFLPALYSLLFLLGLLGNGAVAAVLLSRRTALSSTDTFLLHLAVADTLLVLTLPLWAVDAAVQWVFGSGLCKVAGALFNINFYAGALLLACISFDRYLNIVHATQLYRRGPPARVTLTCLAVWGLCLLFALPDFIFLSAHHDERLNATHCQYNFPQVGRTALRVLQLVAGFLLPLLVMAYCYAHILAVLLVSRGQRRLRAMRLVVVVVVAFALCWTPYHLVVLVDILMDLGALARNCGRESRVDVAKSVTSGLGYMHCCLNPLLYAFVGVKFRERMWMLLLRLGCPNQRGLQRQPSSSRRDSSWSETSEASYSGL
Experimental: as §1

168 GPCRs [6] = target: T6, 168 GPCRs (Homo sapiens, UniProt Q96P65)
T6 construct: host or cells: PathHunter cell lines
T6 sequence (Q96P65 1-431): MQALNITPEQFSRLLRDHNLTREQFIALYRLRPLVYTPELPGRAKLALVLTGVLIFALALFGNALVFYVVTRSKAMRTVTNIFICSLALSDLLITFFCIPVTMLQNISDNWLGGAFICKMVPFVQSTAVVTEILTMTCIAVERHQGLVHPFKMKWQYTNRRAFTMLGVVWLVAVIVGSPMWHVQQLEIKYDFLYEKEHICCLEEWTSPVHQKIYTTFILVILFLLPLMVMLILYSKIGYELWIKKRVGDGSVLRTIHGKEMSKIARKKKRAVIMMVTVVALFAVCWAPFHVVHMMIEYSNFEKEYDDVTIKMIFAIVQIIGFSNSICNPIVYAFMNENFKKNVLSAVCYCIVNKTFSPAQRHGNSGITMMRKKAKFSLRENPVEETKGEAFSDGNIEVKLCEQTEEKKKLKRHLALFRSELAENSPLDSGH
Experimental: as §1

168 GPCRs [7] = target: T7, 168 GPCRs (Homo sapiens, UniProt P32246)
T7 construct: host or cells: PathHunter cell lines
T7 sequence (P32246 1-355): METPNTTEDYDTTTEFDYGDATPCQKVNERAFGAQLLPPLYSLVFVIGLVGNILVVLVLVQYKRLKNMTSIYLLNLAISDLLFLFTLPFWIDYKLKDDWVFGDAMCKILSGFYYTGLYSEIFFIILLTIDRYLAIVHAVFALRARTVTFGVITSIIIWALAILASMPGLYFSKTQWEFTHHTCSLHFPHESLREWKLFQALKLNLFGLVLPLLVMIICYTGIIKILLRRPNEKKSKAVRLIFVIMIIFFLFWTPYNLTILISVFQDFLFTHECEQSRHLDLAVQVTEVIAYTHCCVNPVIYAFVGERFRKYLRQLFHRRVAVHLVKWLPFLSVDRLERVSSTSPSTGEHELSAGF
Experimental: as §1

T1 sequence (Q9H1C0 whole entry): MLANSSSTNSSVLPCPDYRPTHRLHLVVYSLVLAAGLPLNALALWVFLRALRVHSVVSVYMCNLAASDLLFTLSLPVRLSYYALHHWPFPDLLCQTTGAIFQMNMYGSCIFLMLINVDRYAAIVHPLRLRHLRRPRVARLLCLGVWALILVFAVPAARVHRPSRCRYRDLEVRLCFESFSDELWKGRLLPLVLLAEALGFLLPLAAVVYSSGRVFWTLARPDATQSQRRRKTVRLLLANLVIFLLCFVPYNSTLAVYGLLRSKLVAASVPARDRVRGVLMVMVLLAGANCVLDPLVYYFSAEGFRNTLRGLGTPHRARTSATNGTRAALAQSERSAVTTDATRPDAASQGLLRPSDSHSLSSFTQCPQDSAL
T2 sequence (P34972 whole entry): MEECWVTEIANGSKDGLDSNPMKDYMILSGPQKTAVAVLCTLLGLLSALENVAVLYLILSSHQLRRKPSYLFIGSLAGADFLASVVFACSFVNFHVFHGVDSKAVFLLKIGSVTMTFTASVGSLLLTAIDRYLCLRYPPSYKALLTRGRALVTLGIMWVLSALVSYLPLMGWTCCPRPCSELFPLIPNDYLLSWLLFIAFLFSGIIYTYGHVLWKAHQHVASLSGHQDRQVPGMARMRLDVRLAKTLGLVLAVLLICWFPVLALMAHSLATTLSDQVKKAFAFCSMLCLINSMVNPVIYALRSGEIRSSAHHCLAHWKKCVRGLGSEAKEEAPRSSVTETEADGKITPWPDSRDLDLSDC
T3 sequence (P21453 whole entry): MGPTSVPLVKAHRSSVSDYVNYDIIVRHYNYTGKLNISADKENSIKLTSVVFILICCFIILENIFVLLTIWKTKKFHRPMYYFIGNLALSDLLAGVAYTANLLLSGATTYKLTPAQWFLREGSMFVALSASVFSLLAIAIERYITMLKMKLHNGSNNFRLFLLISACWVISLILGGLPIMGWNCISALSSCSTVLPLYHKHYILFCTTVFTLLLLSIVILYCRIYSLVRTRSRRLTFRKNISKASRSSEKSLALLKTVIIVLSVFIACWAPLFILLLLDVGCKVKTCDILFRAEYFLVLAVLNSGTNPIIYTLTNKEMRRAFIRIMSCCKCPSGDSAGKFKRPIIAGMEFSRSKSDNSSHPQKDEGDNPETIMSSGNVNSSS

SMILES | % Agonist Activity (168 GPCRs [1]; GPR92, 1 uM) | % Antagonist Activity (168 GPCRs [1]; GPR92, 1 uM) | % Agonist Activity (168 GPCRs [1]; GPR92, 10 uM) | % Antagonist Activity (168 GPCRs [1]; GPR92, 10 uM) | % Agonist Activity (168 GPCRs [2]; CNR2, 1 uM) | % Antagonist Activity (168 GPCRs [2]; CNR2, 1 uM) | % Agonist Activity (168 GPCRs [2]; CNR2, 10 uM) | % Antagonist Activity (168 GPCRs [2]; CNR2, 10 uM) | % Agonist Activity (168 GPCRs [3]; EDG1, 1 uM) | % Antagonist Activity (168 GPCRs [3]; EDG1, 1 uM) | % Agonist Activity (168 GPCRs [3]; EDG1, 10 uM) | % Antagonist Activity (168 GPCRs [3]; EDG1, 10 uM) | % Agonist Activity (168 GPCRs [4]; Conc 1 uM) | % Antagonist Activity (168 GPCRs [4]; Conc 1 uM) | % Agonist Activity (168 GPCRs [4]; Conc 10 uM) | % Antagonist Activity (168 GPCRs [4]; Conc 10 uM) | % Agonist Activity (168 GPCRs [5]; CXCR3, 1 uM) | % Antagonist Activity (168 GPCRs [5]; CXCR3, 1 uM) | % Agonist Activity (168 GPCRs [5]; CXCR3, 10 uM) | % Antagonist Activity (168 GPCRs [5]; CXCR3, 10 uM) | further results
CNC(C)Cc1ccc2c(c1)OCO2 (centres unmarked) [MDMA, 3,4-Methylenedioxy methamphetamine, reference compound] | -4% | 6.8% | -2.2% | 8% | 0.1% | 8.9% | -6.8% | 7.8% | 0% | 3.5% | -0.6% | -12.4% | 0% | -2.1% | 0.1% | 7.7% | -3.7% | 11.3% | -4.7% | 17.9% | % Agonist Activity (168 GPCRs [6]; GPR103, 1 uM): -4.2%; % Antagonist Activity (168 GPCRs [6]; GPR103, 1 uM): -15.2%; % Agonist Activity (168 GPCRs [6]; GPR103, 10 uM): -6.5%; % Antagonist Activity (168 GPCRs [6]; GPR103, 10 uM): -17.1%; % Agonist Activity (168 GPCRs [7]; CCR1, 1 uM): 13.6%; % Antagonist Activity (168 GPCRs [7]; CCR1, 1 uM): -13%; % Agonist Activity (168 GPCRs [7]; CCR1, 10 uM): 6.2%; % Antagonist Activity (168 GPCRs [7]; CCR1, 10 uM): -7.6%
CNC(C)C(=O)c1ccc2c(c1)OCO2 (centres unmarked) [methylone] | -1.6% | -8% | -3.5% | 5.8% | 7% | 3.6% | 3.2% | -3.2% | 0.1% | 12.4% | 0.4% | 10.5% | 0% | 2.2% | 0.1% | -8.3% | -0.2% | 4.5% | 1.6% | -3.9% | % Agonist Activity (168 GPCRs [6]; GPR103, 1 uM): 0.8%; % Antagonist Activity (168 GPCRs [6]; GPR103, 1 uM): 4.1%; % Agonist Activity (168 GPCRs [6]; GPR103, 10 uM): 3.1%; % Antagonist Activity (168 GPCRs [6]; GPR103, 10 uM): 7%; % Agonist Activity (168 GPCRs [7]; CCR1, 1 uM): -2.6%; % Antagonist Activity (168 GPCRs [7]; CCR1, 1 uM): -8.1%; % Agonist Activity (168 GPCRs [7]; CCR1, 10 uM): 3.6%; % Antagonist Activity (168 GPCRs [7]; CCR1, 10 uM): -16.6%
